# Measured values taken from patent US8871929B2, “Fused-imidazoyl compounds useful as antimicrobial agents” (Merck Sharp & Dohme Corp., priority 2010, dated 2014).
# Test system: Staphylococcus aureus ATCC29213
# Assay: Susceptibility testing (MIC determination), broth microdilution
# Format: cell-based
# Conditions: Mueller Hinton broth, 96-well plate, overnight incubation at 35° C., read-out: MIC Staph. aureus ATCC-29213
# Method: Compounds useful in the method of the invention were investigated for their utility as antimicrobial agents in the following assay. Susceptibility testing (MIC determinations) was performed using the standard broth microdilution methodology precisely as described in the Clinical Laboratory Standards Institute Document M7-A6; Methods for Dilution Antimicrobial Susceptibility Tests for Bacteria That Grow Aerobically; […] To perform the test, a series of 0.1 ml media in a 96-well plate is prepared with Mueller Hinton broth to which various concentrations of the test compound are added. The media are then inoculated with a standardized suspension of the test organism, Staphylococcus aureus ATCC29213. After overnight incubation at 35° C., the tests are examined and the minimal inhibitory concentration (MIC) is determined. MIC is defined as the lowest concentration of an antimicrobial agent that prevents visible growth of a microorganism in the broth microdilution susceptibility test
row,Structure (SMILES),MIC
1,CC(C)c1ccc(-c2nc3cnccn3c2NCC(=O)N2CCN(c3c(Cl)cccc3Cl)CC2)cc1 [Compound 65],1 µg/mL
2,CC(C)c1ccc(-c2nc3cnccn3c2NCC(=O)N2CCN(c3ccccc3C#N)CC2)cc1 [Compound 66],8 µg/mL
3,CC(C)c1ccc(-c2nc3cnccn3c2NCC(=O)N2CCN(c3ncccc3C#N)CC2)cc1 [Compound 67],4 µg/mL
4,CCc1ccc(-c2nc3cnccn3c2NCC(=O)N2CCN(c3c(Cl)cccc3Cl)CC2)cc1 [Compound 70],4 µg/mL
5,O=C(CNc1c(-c2ccc(N3CCCC3)cc2)nc2cnccn12)N1CCN(c2ccccc2C(F)(F)F)CC1 [Compound 72],8 µg/mL
6,O=C(CNc1c(-c2ccc(N3CCOCC3)cc2)nc2ccccn12)N1CCN(c2c(Cl)cncc2Cl)CC1 [Compound 73],0.09 µg/mL
7,Cc1ccn2c(NCC(=O)N3CCN(c4c(Cl)cncc4Cl)CC3)c(-c3ccc(N4CCOCC4)cc3)nc2c1 [Compound 74],0.06 µg/mL
8,Cc1cccc2nc(-c3ccc(N4CCOCC4)cc3)c(NCC(=O)N3CCN(c4c(Cl)cncc4Cl)CC3)n12 [Compound 76],0.03 µg/mL
9,O=C(CNc1c(-c2ccc(N3CCOCC3)cc2)nc2ccc(C(F)(F)F)cn12)N1CCN(c2c(Cl)cncc2Cl)CC1 [Compound 77],0.06 µg/mL

# Next, values leading:
row,MIC,Structure (SMILES)
1,0.125 µg/mL,Cc1ccc2nc(-c3ccc(N4CCOCC4)cc3)c(NCC(=O)N3CCN(c4c(Cl)cncc4Cl)CC3)n2c1 [Compound 78]
2,0.06 µg/mL,O=C(CNc1c(-c2ccc(N3CCOCC3)cc2)nc2cccc(Cl)n12)N1CCN(c2c(Cl)cncc2Cl)CC1 [Compound 79]
3,0.25 µg/mL,O=C(CNc1c(-c2ccc(N3CCOCC3)cc2)nc2cccc(C(F)(F)F)n12)N1CCN(c2c(Cl)cncc2Cl)CC1 [Compound 80]
4,0.25 µg/mL,O=C(CNc1c(-c2ccc(N3CCOCC3)cc2)nc2ccc(Cl)cn12)N1CCN(c2c(Cl)cncc2Cl)CC1 [Compound 81]
5,0.125 µg/mL,O=C(CNc1c(-c2ccc(N3CCOCC3)cc2)nc2cc(C(F)(F)F)ccn12)N1CCN(c2c(Cl)cncc2Cl)CC1 [Compound 82]
6,0.125 µg/mL,O=C(CNc1c(-c2ccc(N3CCOCC3)cc2)nc2ccc(F)cn12)N1CCN(c2c(Cl)cncc2Cl)CC1 [Compound 83]
7,0.125 µg/mL,COC(=O)c1ccn2c(NCC(=O)N3CCN(c4c(Cl)cncc4Cl)CC3)c(-c3ccc(N4CCOCC4)cc3)nc2c1 [Compound 84]
